Reference: US11512053B2, “Arginine methyltransferase inhibitors and uses thereof” (priority 2013, dated 2022)
Structures can show the parent of a compound that is named as a salt. Where two headings read alike, the source gives them in different places.

Tests used:
[1] = biological target: full-length human PRMT8 isoform 1 (Homo sapiens, UniProt Q9NR22); assay: PRMT8 Biochemical Assay (3H-SAM Flashplate, peptide substrate); settings: read-out: Biochemical IC50 PRMT8
Method in brief: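 Scintillation Flashplate capture of biotinylated histone H4 (31-45) peptide (150 nM) methylated by 1.5 nM PRMT8 using 3H-SAM (50 nM) with unlabelled SAM (550 nM); enzyme and compound preincubated 30 min, room temperature, in Bicine pH 7.6 buffer with TCEP, BSG, Tween 20 and 2% DMSO. Stopped with excess cold SAM (400 uM); IC50 from % inhibition, min control 1 mM SAH.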

[2] = tested on: mono-methyl arginine in RKO cells; assay: RKO Methylation Assay, In Cell Western (ICW) for detection of mono-methyl arginine and DNA content; format: cell-based; settings: Homo sapiens, RKO, 72 h, RKO cells, read-out: In Cell Western EC30
Method in brief: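 RKO cells were treated with compound for 72 hours at 37 °C, methanol-fixed and stained overnight at 4 °C with anti-mono-methyl arginine (1:200), with DRAQ5 for DNA. Odyssey 800/700 nm intensity ratio was normalized to DMSO and 20 μM reference-compound controls. EC30 from triplicate nine-point curves.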

[3] = single experiment or average of multiple experiments
[4] = 72 hours compound incubation, mono-methyl arginine signal normalised to DNA content (DRAQ5), percent activation vs 20 μM reference compound
[5] = 72 hours incubation, mono-methyl arginine signal normalised to DNA content, single experiment or average of multiple experiments

full-length human PRMT8 isoform 1, sequence (Q9NR22 whole entry, canonical isoform): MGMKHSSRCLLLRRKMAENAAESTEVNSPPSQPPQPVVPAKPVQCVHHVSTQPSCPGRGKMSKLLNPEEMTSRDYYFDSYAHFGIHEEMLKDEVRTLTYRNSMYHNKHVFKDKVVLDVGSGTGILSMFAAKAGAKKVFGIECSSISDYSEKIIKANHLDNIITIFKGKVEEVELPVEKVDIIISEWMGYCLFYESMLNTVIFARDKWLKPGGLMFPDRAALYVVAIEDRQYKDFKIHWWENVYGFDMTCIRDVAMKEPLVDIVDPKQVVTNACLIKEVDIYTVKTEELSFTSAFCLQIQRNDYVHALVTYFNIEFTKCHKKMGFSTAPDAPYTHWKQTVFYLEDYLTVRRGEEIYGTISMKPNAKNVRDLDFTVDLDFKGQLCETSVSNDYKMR

Row | SMILES | IC50 [1] [nM] | IC50 [1, 3] [nM] | EC30 [2, 4] [nM] | EC30 [2, 5] [nM]
1 | CCOC[C@@H]1C[C@H](COCC)C[C@H](c2n[nH]cc2CN(C)CCNC)C1 [Compound 189] | 101 to 1000 | 478 | 3010 to 12000 | 6620
2 | CNCCN(C)Cc1c[nH]nc1C1CCC(=O)N(CCCOC)C1 (stereo not drawn) [Compound 190] | 101 to 1000 | 352 | 3010 to 12000 | 6620
3 | CNCCN(C)Cc1c[nH]nc1C1CCC(=O)N(Cc2ccc(C(F)(F)F)cc2)C1 (stereo not drawn) [Compound 191] | 101 to 1000 | 152 | 3010 to 12000 | 9250
4 | CNCCN(C)Cc1c[nH]nc1[C@H]1CC[C@H](N(CC(C)C)C(=O)CC2CCOCC2)CC1 [Compound 193] | < 100 | 68.8 | < 3000 | 1440
5 | CNCCN(C)Cc1c[nH]nc1C1CCC(=O)CC1 [Compound 194] | < 100 | 35.3 | < 3000 | 1180
6 | CCN(C(=O)CC1CCOCC1)[C@H]1CC[C@H](c2n[nH]cc2CN(C)CCNC)CC1 [Compound 195] | < 100 | 35.6 | 3010 to 12000 | 4890
7 | CNCCN(C)Cc1c[nH]nc1[C@H]1CC[C@]2(CCN(Cc3cc(F)cc(F)c3)C2=O)CC1 [Compound 197] | < 100 | 15.6 | < 3000 | 406
8 | CNCCN(C)Cc1c[nH]nc1[C@H]1CC[C@@H](N(CCOc2ccccc2)C(=O)CCOC)CC1 [Compound 218] | < 100 | 67 | – | –
9 | CNCCN(C)Cc1c[nH]nc1[C@H]1CC[C@@H](N(CCOc2ccccc2)C(=O)CCCOC)CC1 [Compound 228] | < 100 | 100 | – | –
10 | CNCCN(C)Cc1c[nH]nc1[C@H]1CC[C@H](N(CCCOC)C(=O)CCC(C)C)CC1 [Compound 243] | < 100 | 70.8 | – | –
11 | CNCCN(C)Cc1cnn(C)c1[C@H]1CC[C@@]2(CC1)CC(C)(C)CO2 [Compound 245, Methyl ([2-[methyl([1-methyl-5-[(5S,8S)-3,3-dimethyl-1-oxaspiro[4.5]decan-8-yl]-1H-pyrazol-4-yl]methyl)amino]ethyl])amine trifluoroacetic acid salt] | < 100 | 18.3 | – | –
12 | CNCCN(C)Cc1c[nH]nc1C1CCC(C)(C)[C@@H](C(=O)NCC(C)C)C1 (stereo partly drawn) [Compound 266] | < 100 | 63.1 | – | –
13 | CNCCN(C)Cc1c[nH]nc1C1C[C@H](C(=O)N(C)CC(C)C)C(C)(C)[C@H](C(=O)N(C)CC(C)C)C1 (stereo partly drawn) [Compound 267] | 3010 to 10000 | 5910 | – | –

Further lines, with some results ahead:

Row | IC50 [1] [nM] | IC50 [1, 3] [nM] | SMILES | EC30 [2, 4] [nM] | EC30 [2, 5] [nM]
14 | 1010 to 3000 | 1540 | CCOC[C@H]1CC(c2n[nH]cc2CN(C)CCNC)C[C@H](COCC)C1 (stereo partly drawn) [Compound 188] | – | –
15 | 101 to 1000 | 459 | CNCCN(C)Cc1c[nH]nc1[C@H]1CC[C@H](N(CC2CCOCC2)C(=O)CC(C)C)CC1 [Compound 192] | 3010 to 12000 | 9250
16 | 101 to 1000 | 415 | CCN(C(=O)CC1CCOCC1)[C@H]1CC[C@@H](c2n[nH]cc2CN(C)CCNC)CC1 [Compound 196] | 3010 to 12000 | 4890
17 | < 100 | 83.7 | CNCCN(C)Cc1c[nH]nc1[C@H]1CC[C@@H](N(CCCOC)C(=O)CC(C)C)CC1 [Compound 242] | – | –
18 | < 100 | 42.4 | CCN(C(=O)CCC(C)C)[C@H]1CC[C@H](c2n[nH]cc2CN(C)CCNC)CC1 [Compound 250] | – | –
19 | < 100 | 35.1 | CNCCN(C)Cc1c[nH]nc1C1CCC(C)(C)[C@@H](C(=O)NCCC(C)C)C1 (stereo partly drawn) [Compound 263, (1S)-2,2-dimethyl-5-[4-({methyl[2-(methylamino)ethyl]amino}methyl)-1H-pyrazol-3-yl]-N-(3-methylbutyl)cyclohexane-1-carboxamide] | – | –
20 | 101 to 1000 | 181 | CNCCN(C)Cc1c[nH]nc1C1CCC(C)(C)[C@H](C(=O)NCCOC)C1 (stereo partly drawn) [Compound 264] | – | –
21 | 101 to 1000 | 171 | CNCCN(C)Cc1c[nH]nc1C1CCC(C)(C)[C@H](C(=O)NCCCOC)C1 (stereo partly drawn) [Compound 265] | – | –
